Measured values reported in BigSolDB 2.1.

N#CCc1ccccc1[N+](=O)[O-]
Conditions	solubility (mole fraction)
in 1,4-dioxane, 288.15 K	0.216
in 1,4-dioxane, 293.15 K	0.226
in 1,4-dioxane, 298.15 K	0.241
in 1,4-dioxane, 303.15 K	0.257
in 1,4-dioxane, 308.15 K	0.278
in 1,4-dioxane, 313.15 K	0.303
in 1,4-dioxane, 318.15 K	0.334
in 1,4-dioxane, 323.15 K	0.371
in 1,4-dioxane, 328.15 K	0.414
in 1,4-dioxane, 333.15 K	0.469
in 2-butanone, 278.15 K	0.108
in 2-butanone, 283.15 K	0.128
in 2-butanone, 288.15 K	0.151
in 2-butanone, 293.15 K	0.173
in 2-butanone, 298.15 K	0.197
in 2-butanone, 303.15 K	0.235
in 2-butanone, 308.15 K	0.269
in 2-butanone, 313.15 K	0.312
in 2-butanone, 318.15 K	0.357
in 2-butanone, 323.15 K	0.422
in 2-butanone, 328.15 K	0.475
in 2-butanone, 333.15 K	0.543
in acetic acid, 293.15 K	0.0478
in acetic acid, 298.15 K	0.0574
in acetic acid, 303.15 K	0.0694
in acetic acid, 308.15 K	0.0846
in acetic acid, 313.15 K	0.104
in acetic acid, 318.15 K	0.128
in acetic acid, 323.15 K	0.158
in acetic acid, 328.15 K	0.196
in acetic acid, 333.15 K	0.244
in acetone, 278.15 K	0.13
in acetone, 283.15 K	0.147
in acetone, 288.15 K	0.171
in acetone, 293.15 K	0.194
in acetone, 298.15 K	0.227
in acetone, 303.15 K	0.259
in acetone, 308.15 K	0.295
in acetone, 313.15 K	0.342
in acetone, 318.15 K	0.385
in acetone, 323.15 K	0.439
in acetone, 328.15 K	0.506
in acetonitrile, 278.15 K	0.0932
in acetonitrile, 283.15 K	0.107
in acetonitrile, 288.15 K	0.124
in acetonitrile, 293.15 K	0.143
in acetonitrile, 298.15 K	0.168
in acetonitrile, 303.15 K	0.195
in acetonitrile, 308.15 K	0.228
in acetonitrile, 313.15 K	0.264
in acetonitrile, 318.15 K	0.31
in acetonitrile, 323.15 K	0.362
in acetonitrile, 328.15 K	0.424
in acetonitrile, 333.15 K	0.498
in ethanol, 278.15 K	0.00458
in ethanol, 283.15 K	0.00566
in ethanol, 288.15 K	0.00705
in ethanol, 293.15 K	0.00939
in ethanol, 298.15 K	0.0118
in ethanol, 303.15 K	0.0156
in ethanol, 308.15 K	0.0213
in ethanol, 313.15 K	0.0277
in ethanol, 318.15 K	0.0383
in ethanol, 323.15 K	0.0487
in ethanol, 328.15 K	0.0649
in ethanol, 333.15 K	0.0838
in ethyl acetate, 278.15 K	0.13
in ethyl acetate, 283.15 K	0.142
in ethyl acetate, 288.15 K	0.16
in ethyl acetate, 293.15 K	0.177
in ethyl acetate, 298.15 K	0.199
in ethyl acetate, 303.15 K	0.219
in ethyl acetate, 308.15 K	0.246
in ethyl acetate, 313.15 K	0.278
in ethyl acetate, 318.15 K	0.313
in ethyl acetate, 323.15 K	0.357
in ethyl acetate, 328.15 K	0.407
in ethyl acetate, 333.15 K	0.466
in ethylbenzene, 278.15 K	0.0237
in ethylbenzene, 283.15 K	0.0285
in ethylbenzene, 288.15 K	0.0346
in ethylbenzene, 293.15 K	0.0423
in ethylbenzene, 298.15 K	0.052
in ethylbenzene, 303.15 K	0.0644
in ethylbenzene, 308.15 K	0.0803
in ethylbenzene, 313.15 K	0.101
in ethylbenzene, 318.15 K	0.126
in ethylbenzene, 323.15 K	0.16
in ethylbenzene, 328.15 K	0.204
in ethylbenzene, 333.15 K	0.26
in isobutanol, 278.15 K	0.00332
in isobutanol, 283.15 K	0.00416
in isobutanol, 288.15 K	0.00491
in isobutanol, 293.15 K	0.00639
in isobutanol, 298.15 K	0.00803
in isobutanol, 303.15 K	0.0102
in isobutanol, 308.15 K	0.013
in isobutanol, 313.15 K	0.0171
in isobutanol, 318.15 K	0.0228
in isobutanol, 323.15 K	0.0303
in isobutanol, 328.15 K	0.0404
in isobutanol, 333.15 K	0.0546
in isopropanol, 278.15 K	0.00411
in isopropanol, 283.15 K	0.00484
in isopropanol, 288.15 K	0.00579
in isopropanol, 293.15 K	0.00751
in isopropanol, 298.15 K	0.00982
in isopropanol, 303.15 K	0.0132
in isopropanol, 308.15 K	0.0177
in isopropanol, 313.15 K	0.0228
in isopropanol, 318.15 K	0.03
in isopropanol, 323.15 K	0.0384
in isopropanol, 328.15 K	0.0492
in isopropanol, 333.15 K	0.0627
in methanol, 278.15 K	0.00641
in methanol, 283.15 K	0.00842
in methanol, 288.15 K	0.0105
in methanol, 293.15 K	0.0131
in methanol, 298.15 K	0.0174
in methanol, 303.15 K	0.0235
in methanol, 308.15 K	0.0305
in methanol, 313.15 K	0.0395
in methanol, 318.15 K	0.0514
in methanol, 323.15 K	0.0661
in methanol, 328.15 K	0.0842
in methanol, 333.15 K	0.108
in n-butanol, 278.15 K	0.00351
in n-butanol, 283.15 K	0.00437
in n-butanol, 288.15 K	0.00569
in n-butanol, 293.15 K	0.00731
in n-butanol, 298.15 K	0.00969
in n-butanol, 303.15 K	0.0129
in n-butanol, 308.15 K	0.0175
in n-butanol, 313.15 K	0.0223
in n-butanol, 318.15 K	0.0293
in n-butanol, 323.15 K	0.0383
in n-butanol, 328.15 K	0.0491
in n-butanol, 333.15 K	0.0624
in n-propanol, 278.15 K	0.00412
in n-propanol, 283.15 K	0.00553
in n-propanol, 288.15 K	0.00681
in n-propanol, 293.15 K	0.00917
in n-propanol, 298.15 K	0.0115
in n-propanol, 303.15 K	0.0151
in n-propanol, 308.15 K	0.0196
in n-propanol, 313.15 K	0.0254
in n-propanol, 318.15 K	0.0333
in n-propanol, 323.15 K	0.0426
in n-propanol, 328.15 K	0.0544
in n-propanol, 333.15 K	0.0685
in toluene, 278.15 K	0.0293
in toluene, 283.15 K	0.0371
in toluene, 288.15 K	0.0471
in toluene, 293.15 K	0.0613
in toluene, 298.15 K	0.0738
in toluene, 303.15 K	0.0968
in toluene, 308.15 K	0.123
in toluene, 313.15 K	0.153
in toluene, 318.15 K	0.195
in toluene, 323.15 K	0.241
in toluene, 328.15 K	0.303
in toluene, 333.15 K	0.377
in water, 278.15 K	3.75e-05
in water, 283.15 K	4.65e-05
in water, 288.15 K	5.57e-05
in water, 293.15 K	6.69e-05
in water, 298.15 K	8.19e-05
in water, 303.15 K	0.000102
in water, 308.15 K	0.000125
in water, 313.15 K	0.000153
in water, 318.15 K	0.000186
in water, 323.15 K	0.000225
in water, 328.15 K	0.000274
in water, 333.15 K	0.000333
